Experimental data reported in ChEMBL document CHEMBL3507680, “University of Dundee, Gates Library screen for HepG2 cell viability”.

Experiment: Human HepG2 cell viability assay in 384 well format
Type: toxicity, cell-based
Parameters: dose 125 nL, time 70.5 hour; concentration not given beside the values
Conditions: HepG2 cells, read-out: Inhibition

| Compound | cytotoxicity at 70.5 h [%] |
| --- | --- |
| COC(=O)N1CCN(C(=O)c2ccc(C)c(N3CCNC3=O)c2)CC1 | 14 |
| CN1CCN(C(=O)c2cc3sccc3n2Cc2ccc(Cl)cc2)CC1 | -5.06 |
| Cc1cc(C(=O)N2CCC3(CCNCC3)CC2)c2cccc(C)c2n1 | 43.8 |
| COC(=O)CN1CCC(C(F)(F)F)CC1 | -2.55 |
| CCc1cc(CNC(=O)Nc2cc(F)cc(N3CCCC3)c2)on1 | -11.5 |
| CN(C)Cc1cc(C2CCCN(S(=O)(=O)c3cccc(Cl)c3)C2)nn1C (stereo not drawn) | -14.6 |
| NC(=O)CN(CC(=O)NCc1cc(F)cc(F)c1)C1CCCC1 | -10.9 |
| c1ccc(-c2nnc(CN3C[C@@H]4CC[C@H](C3)N(CC3CCC3)C4)o2)cc1 | 18.8 |
| O=C1NC2(CCN(Cc3cccnc3)CC2)CC1c1cccnc1 (stereo not drawn) | -8.55 |
| O=C(Nc1cccc2c1CCCC2)c1cccnc1N1CCCNCC1 | -5.23 |
| Cc1ccc(NCCCc2c(C)noc2C)nn1 | -6.84 |
| Clc1snnc1CN1CCCCC1Cn1cccn1 (stereo not drawn) | 26.2 |
| O=C(Cc1ccccc1F)N1CCN(C(=O)c2ccoc2)CC1 | -1.84 |
| CCCNC(=O)COc1ccc(C)cn1 | -0.369 |
| Cc1cnn(CC2CCCN2C(=O)c2cccc(-n3ccc(C)n3)c2)c1 (stereo not drawn) | -7.87 |
| COc1c(CNC2CCOc3c(F)cccc32)c(C)nn1C (stereo not drawn) | -3.45 |
| CC(C)C(C#N)N1CCN(C(=O)c2cc(-c3ccccn3)no2)CC1 (stereo not drawn) | 3.13 |
| O=C(NCCN1CCCCCC1)c1coc(COc2ccc(F)cc2)n1 | 8.68 |
| Cn1ccc(CN2CCC(Oc3ccccc3)CC2)cc1=O | -12 |
| Cc1cc(-c2cnc(NC3CCCC3)nc2-c2ccoc2)on1 | -2.38 |
| O=C(c1cnn2c1OCCC2)N1CCN(C/C=C/c2ccccc2)CC1 | 7.17 |
| Cn1ccnc1CN1CCC2(CCC(=O)N2CCN2CCCC2)CC1 | -8.64 |
| CCN1CCOC(CNCc2cccc(OCc3ccccn3)c2)C1 (stereo not drawn) | -6.84 |

| Compound | cytotoxicity at 70.5 h [%] |
| --- | --- |
| CCOc1ccc(C#N)cc1NCC(=O)Nc1cc(C)no1 | -14.1 |
| Cc1cccc(CN2C(=O)CC[C@@H]3[C@H]2CCN3Cc2ccc(C)s2)n1 | -18.1 |
| CC(NC(=O)N(C)Cc1ccncc1)c1cn(-c2ccccc2)nn1 (stereo not drawn) | 4.1 |
| CC(C)C(=O)N1CC[C@H]2N(C)CC[C@@]2(C(=O)N2CCOCC2)CC1 | 2.86 |
| COc1cc(CNC(=O)COC2CCCC2)ccc1O | -4.4 |
| Cc1nc(C)c(C(=O)N2CCc3c(Cl)cccc32)o1 | 1.38 |
| Cc1cc(C)n(CC2CN(CC(=O)Nc3c(C)n[nH]c3C)CCO2)n1 (stereo not drawn) | -8.05 |
| Cc1c(NC(=O)c2ccc(Br)cc2)c(C(=O)N(C)C)nn1C | -6.74 |
| O=C(C1CC1)N1CC[C@H]2[C@@H]1CCC(=O)N2c1ccccc1 | -2.42 |
| COC[C@]1(O)CCN(C(=O)c2cccc(CN(C)C)c2)CC1(C)C | -5.34 |
| COc1ccc(C(C)C)cc1C1CC(=O)NCc2nc(N(C)C)sc21 (stereo not drawn) | 13.4 |
| C1CC(CN2CC[C@@H]3O[C@@H](c4nnc(C5CC5)o4)C[C@H]3C2)CCO1 | -9.09 |
| CC(C)NC(=O)NC[C@@]1(COc2cnccn2)C[C@@H](O)[C@@H](O)C1 | 3.08 |
| COc1ncc(-c2cc(-c3ccn(C)c3)nc(N)c2C#N)cn1 | 7.14 |
| CC(C)n1c(=O)c2sccc2n(CC(=O)Nc2cccc(Cl)c2)c1=O | -12.8 |
| CC(C)Nc1nc2c(c(NC3CC3)n1)CCN(C(=O)C1CCOC1)CC2 (stereo not drawn) | 1.81 |
| Cc1cc(C)n(Cc2ccc(C(=O)N3CCOCC3(C)C)cc2)n1 | 12.1 |
| Cc1noc([C@@H]2C[C@@H]3CCN(CC4CCOCC4)C[C@H]3O2)n1 | -4.62 |
| CN(C)CCN1CCOCC2(C1)CN(Cc1ccco1)CCO2 (stereo not drawn) | -17.1 |
| CCC(O)c1nc2c([nH]1)CC(C)(C)CNC2=O (stereo not drawn) | 13 |
| CC(C)OC(=O)N1CCCC(c2nccn2Cc2ccncc2)C1 (stereo not drawn) | -8 |
| Cc1c(C(C)N)cnn1-c1ccccn1 (stereo not drawn) | -8.01 |
| CCC(C)c1csc(NC(=O)Cc2csc(-c3nnc[nH]3)n2)n1 (stereo not drawn) | 9.25 |

| Compound | cytotoxicity at 70.5 h [%] |
| --- | --- |
| CN1CCCN(Cn2nc(-c3ccccc3F)ccc2=O)CC1 | -5.91 |
| COCCO[C@H]1CCN(c2cc(OC)ncn2)[C@H]1Cc1ccncc1 | -1.44 |
| CCC(C)N(CC)C(=O)c1ccc2[nH]nnc2c1 (stereo not drawn) | -6.36 |
| O=C(CCCc1ccc(Cl)cc1)N1CCC(c2nnc[nH]2)CC1 | -2.6 |
| CC(C)c1nsc(NC2CCOC3(CCCC3)C2)n1 (stereo not drawn) | -0.215 |
| COCc1noc(Cn2c(C)cc(C(F)(F)F)cc2=O)n1 | -10.7 |
| Cc1ccccc1-c1cccc(CN2C[C@H]3C(=O)NC[C@@]3(C(=O)O)C2)c1 | 12.4 |
| COc1ccccc1OCCNC1CCCN(Cc2noc(C)n2)C1 (stereo not drawn) | 31.2 |
| Cc1[nH]c(=O)[nH]c(=O)c1CN1CCCC(CCc2c(F)cccc2F)C1 (stereo not drawn) | -12.5 |
| O=C(CC1CCCCC1)NC1CCCCNC1=O (stereo not drawn) | -9.32 |
| CS(=O)(=O)NCCC1CN(Cc2ccccc2F)CCO1 (stereo not drawn) | 0.792 |
| O=C(Nc1ccc(I)cc1C(=O)NCCN1CCOCC1)c1cccs1 | 11.1 |
| O=C(c1cc[nH]n1)N1CCCC1c1ccccn1 (stereo not drawn) | -4.38 |
| N#Cc1cccc(N2CCOCC3(CCCN(C(=O)NC4CC4)C3)C2)c1 (stereo not drawn) | -6.43 |
| CCc1ncc(CNC2CC(=O)N(CCc3cccc(Cl)c3)C2)cn1 (stereo not drawn) | -4.07 |
| O=S(=O)(NCc1ccccc1)NCc1nc(-c2ccncc2)n[nH]1 | -5.68 |
| Cc1cc2cc(C(=O)N3C[C@H](O)[C@]4(CCCO4)C3)ccc2o1 | -2.18 |
| COC[C@]1(O)CCN(C2CCN(c3ccc(F)c(F)c3)CC2)CC1(C)C | 22.6 |
| Cc1cccc(CN2CCc3cc(C(=O)O)c(N(C)C)nc3CC2)n1 | -5.66 |
| CC(C)(C(=O)NCc1n[nH]c(=O)[nH]1)c1ccc(F)cc1 | -2.39 |
| NC(=O)NC(=O)CN1CCN(CC2CC2)c2ccccc21 | 8.16 |
| O=C(NCCC1=CCCCC1)C1CCCN(c2ccc3nncn3n2)C1 (stereo not drawn) | 9.17 |
| COC(=O)c1cc2c(=O)n(C3CCCC3)ccc2nc1C | -15.4 |

| Compound | cytotoxicity at 70.5 h [%] |
| --- | --- |
| NC(=O)NC(=O)C(c1ccccc1)N1CCN(Cc2ccsc2)CC1 (stereo not drawn) | -7.31 |
| COc1cc(CN(C)C(=O)NC2CC2)ccc1SC | -3.48 |
| O=C(C1CCOC1)N1CCC2(CC1)COC2 (stereo not drawn) | -7.79 |
| COc1cccc(CN2C[C@@H]3COC[C@]3(COc3cccnc3)C2)c1 | 3.66 |
| Cc1cc(C)n(C2CCCN(C(=O)Cc3cccs3)C2)n1 (stereo not drawn) | 11 |
| COc1ccc(CN2C[C@@H]3OCCN(CCN(C)C)[C@@H]3C2)cc1 | -3.2 |
| CCOc1ccc(NC(=O)c2cnc(N3CCCC3)nc2C)cc1 | -15.6 |
| Cc1cnc(C(=O)N2CCN(C(=O)CC(C)C)[C@@H]3CS(=O)(=O)C[C@@H]32)cn1 | -7.52 |
| CCO[C@@H]1CCN(C(=O)c2cscn2)[C@@H]1Cc1cnn(C)c1 | -10.2 |
| COC(CNC(=O)c1cn(C)nn1)c1ccccc1C (stereo not drawn) | -3.6 |
| CCCN(C(=O)CS(=O)(=O)c1ccccc1)c1cccc(C)c1 | -5.44 |
| CC(C)(C)c1nc(CNC2CCCN(c3cccnn3)C2)no1 (stereo not drawn) | -0.0267 |
| Cc1nccc([C@@H]2C[C@@H]3CCN(Cc4ccco4)C[C@H]3O2)n1 | 12.2 |
| CS(=O)(=O)c1snnc1C1CCN(Cc2cccnc2)CC1 | 8.4 |
| N#Cc1ccc(F)c(CNC(=O)NC(CO)Cc2ccccc2)c1 (stereo not drawn) | -3.61 |
| CCc1c(C)nc(SCc2ccccn2)[nH]c1=O | -5.97 |
| O=C(CN1CCCC1Cn1cncn1)NCCOc1ccccc1 (stereo not drawn) | -2.53 |
| O=C(C1CCOC1)N1CCN(Cc2ccc3c(c2)CCO3)CC1 (stereo not drawn) | -9.08 |
| CNCC[C@H]1CC(C)(C)Oc2ccc(C)cc21 | -2.65 |
| Cc1nn(C)c2cn(CC(=O)NC3CCSCC3)nc12 | -0.476 |
| CCS(=O)(=O)N1CCc2nnc(CN(C)C(C)C)n2CC1 | 19.5 |
| O=C(NC1CCN(c2cccc(C(F)(F)F)n2)CC1)C1CC1 | 23.1 |
| CN1CCCN(C(=O)c2nc3c(o2)CN(S(C)(=O)=O)C3)CC1 | -14.5 |

| Compound | cytotoxicity at 70.5 h [%] |
| --- | --- |
| CC(C)c1cc(-c2cnn(C)c2C2CC2)c(C#N)c(N)n1 | -0.849 |
| Cc1ccc(CN2CC[C@H](c3nnc(-c4ccco4)o3)C2)cc1 | 6.16 |
| C=Cn1ncc(CN2C[C@@H]3CCCN3C[C@H]2CCSC)c1C | -12.3 |
| CCC(C(=O)N(Cc1ccccn1)C1CCCCC1)n1cccn1 (stereo not drawn) | 22.3 |
| CC1(C)CN=C(N2CCN(CC3CCCCO3)CC2)S1 (stereo not drawn) | 0.00251 |
| CCN(CC1CCOC1)C(=O)c1ccccc1NS(=O)(=O)CC (stereo not drawn) | -3.45 |
| c1cnc(N2CCO[C@H]3[C@H](OCC4CCOCC4)CC[C@@H]32)nc1 | -10.9 |
| CN(C)C(=O)CNC(=O)c1nc2c(s1)CCCN2Cc1ccccc1 | -2.15 |
| O=C(CNc1cccc(CC(F)(F)F)c1)NCc1ccco1 | -4.32 |
| COc1ccc2c(c1)CCCC2CC(=O)NCC(C)(C)C(=O)O (stereo not drawn) | -10.7 |
| Cc1cc(CN(C)C(=O)C2CCCN(C(=O)c3cccs3)C2)no1 (stereo not drawn) | -10.3 |
| CC(C)C(Sc1ccccc1)C(=O)N(C)Cc1nnc2n1CCC2 (stereo not drawn) | 25.6 |
| NC(=O)Nc1cccc(F)c1C(=O)NC1CCCC1 | -3.68 |
| O=C(c1ccnn1-c1ccc2ccccn12)N1CCCC1 | -10.6 |
| CC1CCN(S(=O)(=O)NC2CCCCNC2=O)CC1 (stereo not drawn) | -5.25 |
| CN(C)S(=O)(=O)N1CCC(Oc2cccnn2)CC1 | 0.601 |
| O=C(c1cc(F)ccc1F)C1CCN(C(=O)c2ccccn2)CC1 | -12.2 |
| Cc1cc(C(F)(F)F)n2nc(C3CCN(S(C)(=O)=O)CC3)cc2n1 | -7.35 |
| CS(=O)(=O)N1CCC2(CC1)CC(OCC1CCOCC1)CO2 (stereo not drawn) | -7.58 |
| Cc1nc(C)n(CC2CN(Cc3cscn3)CCO2)n1 (stereo not drawn) | -6.91 |
| CN1CCCC1c1cncc(C(=O)NCCN2CCCCC2)n1 (stereo not drawn) | -8.33 |
